The record followed here is patent publication US10787430B2, “Hemoglobin modifier compounds and uses thereof” (FronThera U.S. Pharmaceuticals LLC, priority 2016, dated 2020).

For this assay, the target named is T1, hemoglobin (20% hct blood) (Homo sapiens, UniProt P68871+P69905).
T1 construct: Normal whole blood was collected from adult healthy donors; from tissue; host or cells: normal human whole blood (red blood cells), adult healthy donors
Kind of assay: Dose-dependent whole blood OEC studies. It is filed as cell-based. The note with it: 37° C., 1 hr; for delta p50 0.2 mM: 0.2 mM compound; for delta p50 0.5 mM: 0.5 mM compound. The method, then: Materials: Normal whole blood was collected from adult healthy donors at the Virginia Commonwealth University after informed consent. The use of these human samples is in accordance with regulations of the IRB for Protection of Human Subjects. Compounds (50 mM-100 mM concentration in DMSO) were stored at 15° C. or room temperature until use.
To 2 ml 20% hct blood, 0.2 or 0.5 or 1 mM compound was added and kept shaking at 37° C. for 1 hr. OEC analysis was performed as described above to determine partial pressure of oxygen (pO2) and Hb oxygen saturation values (sO2). A control without compound but containing equivalent amount of DMSO was performed (1%). GBT440 was used as a positive control. Table 2 below lists the delta p50% values.

T1 sequence (P69905 2-142 limits assumed): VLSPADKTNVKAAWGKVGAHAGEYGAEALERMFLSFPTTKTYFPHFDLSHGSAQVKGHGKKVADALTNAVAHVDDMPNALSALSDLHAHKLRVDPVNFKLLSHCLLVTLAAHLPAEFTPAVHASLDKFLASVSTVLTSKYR
T1 sequence (P68871 2-147 limits assumed): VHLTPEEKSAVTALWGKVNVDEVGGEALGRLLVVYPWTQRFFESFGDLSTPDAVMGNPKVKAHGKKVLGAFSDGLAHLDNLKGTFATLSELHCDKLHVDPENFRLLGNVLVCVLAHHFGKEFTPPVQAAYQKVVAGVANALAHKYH

As to `[2H]C([2H])([2H])C(n1nccc1-c1ncccc1COc1ccc2ncoc2c1C=O)C([2H])([2H])[2H]` [Example 33, 6-((2-(1-(propan-2-yl-1,1,1,3,3,3-d6)-1H-pyrazol-5-yl)pyridin-3-yl)methoxy)benzo[d]oxazole-7-carbaldehyde], the “delta p50 0.2 mM” value was −12.70% and the “delta p50 0.5 mM” value is listed as −39.70%.
On the same counts, the results for `[2H]C([2H])([2H])C(n1ncc(F)c1-c1ncncc1COc1cc(F)cc(O)c1C=O)C([2H])([2H])[2H]` [Example 34, 4-fluoro-2-((4-(4-fluoro-1-(propan-2-yl-1,1,1,3,3,3-d6)-1H-pyrazol-5-yl)pyrimidin-5-yl)methoxy)-6-hydroxybenzaldehyde] are −6.50% and −10.00%.
`[2H]C([2H])([2H])C(n1ncc(F)c1-c1ncncc1COc1cccc(O)c1C=O)C([2H])([2H])[2H]` [Example 35, 2-((4-(4-fluoro-1-(propan-2-yl-1,1,1,3,3,3-d6)-1H-pyrazol-5-yl)pyrimidin-5-yl)methoxy)-6-hydroxybenzaldehyde]: the “delta p50 0.2 mM” value is recorded as −10.30% and the “delta p50 0.5 mM” value was −29.80%.
For `[2H]C([2H])([2H])C(n1nccc1-c1ncncc1COc1cc(F)cc(O)c1C=O)C([2H])([2H])[2H]` [Example 36, 4-fluoro-2-hydroxy-6-((4-(1-(propan-2-yl-1,1,1,3,3,3-d6)-1H-pyrazol-5-yl)pyrimidin-5-yl)methoxy)benzaldehyde], the “delta p50 0.2 mM” value was −9.30% and the “delta p50 0.5 mM” value is on record as −14%.
In the same order, the values of `[2H]C([2H])([2H])C(n1nccc1-c1ncncc1COc1cccc(O)c1C=O)C([2H])([2H])[2H]` [Example 37, 2-hydroxy-6-((4-(1-(propan-2-yl-1,1,1,3,3,3-d6)-1H-pyrazol-5-yl)pyrimidin-5-yl)methoxy)benzaldehyde] are −16.20% and −46.10%.
In the same order, the values of `[2H]C([2H])(Oc1cc(F)cc(O)c1C=O)c1cncnc1-c1ccnn1C(C)C` [Example 39, 4-fluoro-2-hydroxy-6-((4-(1-isopropyl-1H-pyrazol-5-yl)pyrimidin-5-yl)methoxy-d2)benzaldehyde] are −12.20% and −29.30%.
In the case of `[2H]C([2H])(Oc1ccc(F)c(O)c1C=O)c1cncnc1-c1ccnn1C(C)C` [Example 40, 3-fluoro-2-hydroxy-6-((4-(1-isopropyl-1H-pyrazol-5-yl)pyrimidin-5-yl)methoxy-d2)benzaldehyde], the “delta p50 0.2 mM” value is given as −6% and the “delta p50 0.5 mM” value is given as −12%.
In the same order, the values of `[2H]C([2H])(Oc1cccc(O)c1C=O)c1cncnc1-c1c(F)cnn1C(C)C` [Example 41, 2-((4-(4-fluoro-1-isopropyl-1H-pyrazol-5-yl)pyrimidin-5-yl)methoxy-d2)-6-hydroxybenzaldehyde] are −14.40% and −30.20%.
On the same counts, the results for `[2H]C([2H])(Oc1cccc(O)c1C=O)c1cncnc1-n1ccnc1C(C)C` [Example 42, 2-hydroxy-6-((4-(2-isopropyl-1H-imidazol-1-yl)pyrimidin-5-yl)methoxy-d2)benzaldehyde] are −10.20% and −23.10%.
On the same counts, the results for `[2H]C([2H])(Oc1ccc2ncoc2c1C=O)c1cncnc1-n1ccnc1C(C)C` [Example 43, 6-((4-(2-isopropyl-1H-imidazol-1-yl)pyrimidin-5-yl)methoxy-d2)benzo[d]oxazole-7-carbaldehyde] are −9.90% and −28.10%.
For `[2H]C([2H])(Oc1cc(F)cc(O)c1C=O)c1cncnc1-n1ccnc1C(C)C` [Example 44, 4-fluoro-2-hydroxy-6-((4-(2-isopropyl-1H-imidazol-1-yl)pyrimidin-5-yl)methoxy-d2)benzaldehyde], the “delta p50 0.2 mM” value was −6.90% and the “delta p50 0.5 mM” value is −22.10%.
In the same order, the values of `[2H]C([2H])(Oc1cccc(O)c1C=O)c1cccnc1-n1ccnc1C1CC1` [Example 45, 2-((2-(2-cyclopropyl-1H-imidazol-1-yl)pyridin-3-yl)methoxy-d2)-6-hydroxybenzaldehyde] are −10% and −29.80%.
In the same order, the values of `[2H]C([2H])(Oc1cccc(O)c1C=O)c1ncccc1-c1ccnn1C(C)C` [Example 46, 2-hydroxy-6-((3-(1-isopropyl-1H-pyrazol-5-yl)pyridin-2-yl)methoxy-d2)benzaldehyde] are −12.80% and −37.90%.
In the same order, the values of `[2H]C([2H])(Oc1cc(F)cc(O)c1C=O)c1ncccc1-c1ccnn1C(C)C` [Example 47, 4-fluoro-2-hydroxy-6-((3-(1-isopropyl-1H-pyrazol-5-yl)pyridin-2-yl)methoxy-d2)benzaldehyde] are −15.30% and −40.80%.
For the compound `[2H]C(C)(C)n1nccc1-c1ncccc1COc1cccc(O)c1C=O` [Example 48, 2-hydroxy-6-((2-(1-(propan-2-yl-2-d)-1H-pyrazol-5-yl)pyridin-3-yl)methoxy)benzaldehyde], the “delta p50 0.2 mM” value is on record as −11% and the “delta p50 0.5 mM” value is listed as −38.10%.
As to `[2H]C(C)(C)n1nccc1-c1ncncc1COc1cccc(O)c1C=O` [Example 50, 2-hydroxy-6-((4-(1-(propan-2-yl-2-d)-1H-pyrazol-5-yl)pyrimidin-5-yl)methoxy)benzaldehyde], the “delta p50 0.2 mM” value is on record as −16.10% and the “delta p50 0.5 mM” value is −38.4.%.
Consider `[2H]C(C)(C)n1nccc1-c1nccnc1COc1cccc(O)c1C=O` [Example 51, 2-hydroxy-6-((3-(1-(propan-2-yl-2-d)-1H-pyrazol-5-yl)pyrazin-2-yl)methoxy)benzaldehyde], for which the “delta p50 0.2 mM” value is reported as −13.10% and the “delta p50 0.5 mM” value is reported as −36.40%.
On the same counts, the results for `CC(C)n1nccc1-c1ncncc1COc1ccc2ncsc2c1C=O` [Example 53, 6-((4-(1-isopropyl-1H-pyrazol-5-yl)pyrimidin-5-yl)methoxy)benzo[d]thiazole-7-carbaldehyde] are −20.50% and −37.80%.
`CC(C)n1nccc1-c1ncncc1COc1ccc2ncoc2c1C=O` [Example 54, 6-((4-(1-isopropyl-1H-pyrazol-5-yl)pyrimidin-5-yl)methoxy)benzo[d]oxazole-7-carbaldehyde]: the “delta p50 0.2 mM” value is −12.00% and the “delta p50 0.5 mM” value is listed as −35.00%.
On the same counts, the results for `CC(C)n1nccc1-c1ncncc1COc1ccc2cccnc2c1C=O` [Example 55, 7-((4-(1-isopropyl-1H-pyrazol-5-yl)pyrimidin-5-yl)methoxy)quinoline-8-carbaldehyde] are −5.30% and −8.80%.
On the same counts, the results for `CC(C)n1nccc1-c1ncncc1COc1ccc2cccnc2c1C=O` [Example 56, 7-((4-(1-isopropyl-1H-pyrazol-5-yl)pyrimidin-5-yl)methoxy)quinoline-8-carbaldehyde] are −1.60% and −11.30%.
On the same counts, the results for `CC(C)n1ncc(F)c1-c1ncncc1COc1cccc(O)c1C=O` [Example 57, 2-((4-(4-fluoro-1-isopropyl-1H-pyrazol-5-yl)pyrimidin-5-yl)methoxy)-6-hydroxybenzaldehyde] are −4.90% and −7.60%.
